Test results taken from PubChem BioAssay (NCI).
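Following 48 hours of exposure in 96-well plates, responses at five concentrations were used to interpolate endpoints linearly. GI50: concentration for 50% inhibition of growth. TGI: concentration producing complete growth inhibition.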

How the values were obtained:
Assay in all cases: DTP human tumour cell line panel, 48 h
NCI-H23 lung = system: NCI-H23 lung
IGROV1 ovarian = system: IGROV1 ovarian
RXF 393 renal = system: RXF 393 renal
786-0 renal = system: 786-0 renal
SK-MEL-28 melanoma = system: SK-MEL-28 melanoma
SR leukemia = system: SR leukemia
NCI-H226 lung = system: NCI-H226 lung
SN12C renal = system: SN12C renal
HCT-15 colon = system: HCT-15 colon
NCI-H460 lung = system: NCI-H460 lung
OVCAR-4 ovarian = system: OVCAR-4 ovarian
EKVX NSCLC = system: EKVX NSCLC
OVCAR-8 ovarian = system: OVCAR-8 ovarian
CCRF-CEM leukemia = system: CCRF-CEM leukemia
OVCAR-5 ovarian = system: OVCAR-5 ovarian
SF-295 CNS = system: SF-295 CNS
LOX IMVI melanoma = system: LOX IMVI melanoma
COLO 205 colon = system: COLO 205 colon
CAKI-1 renal = system: CAKI-1 renal
U251 CNS = system: U251 CNS
UACC-62 melanoma = system: UACC-62 melanoma
BT-549 breast = system: BT-549 breast
HCT-116 colon = system: HCT-116 colon
SNB-75 CNS = system: SNB-75 CNS
SK-MEL-2 melanoma = system: SK-MEL-2 melanoma
DU-145 prostate = system: DU-145 prostate
SNB-19 CNS = system: SNB-19 CNS
T-47D breast = system: T-47D breast
MCF7 breast = system: MCF7 breast
MOLT-4 leukemia = system: MOLT-4 leukemia
SK-MEL-5 melanoma = system: SK-MEL-5 melanoma
SK-OV-3 ovarian = system: SK-OV-3 ovarian
OVCAR-3 ovarian = system: OVCAR-3 ovarian
UO-31 renal = system: UO-31 renal
PC-3 prostate = system: PC-3 prostate
NCI/ADR-RES ovarian = system: NCI/ADR-RES ovarian
RPMI-8226 leukemia = system: RPMI-8226 leukemia
UACC-257 melanoma = system: UACC-257 melanoma
A498 renal = system: A498 renal
MDA-MB-231 breast = system: MDA-MB-231 breast
K-562 leukemia = system: K-562 leukemia
MDA-MB-435 = system: MDA-MB-435
HL-60(TB) leukemia = system: HL-60(TB) leukemia
HOP-92 NSCLC = system: HOP-92 NSCLC
HCC-2998 colon = system: HCC-2998 colon
A549 NSCLC = system: A549 NSCLC
HT29 colon = system: HT29 colon
TK-10 renal = system: TK-10 renal
SW-620 colon = system: SW-620 colon
KM12 colon = system: KM12 colon
SF-268 CNS = system: SF-268 CNS
SF-539 CNS = system: SF-539 CNS
ACHN renal = system: ACHN renal
MALME-3M melanoma = system: MALME-3M melanoma
M14 melanoma = system: M14 melanoma
HS 578T breast = system: HS 578T breast
HOP-62 NSCLC = system: HOP-62 NSCLC

Which results are given for `CCN(CC)CCn1c2ccc(O)cc2c2sc3cc(OC)ccc3c(=O)c21`?
GI50 (NCI-H23 lung): 1.56 µM; TGI (NCI-H23 lung): 3.18 µM; GI50 (IGROV1 ovarian): 1.59 µM; TGI (IGROV1 ovarian): 4.52 µM; GI50 (RXF 393 renal): 1.3 µM; TGI (RXF 393 renal): 2.68 µM; GI50 (786-0 renal): 1.39 µM; TGI (786-0 renal): 2.79 µM; GI50 (SK-MEL-28 melanoma): 1.8 µM; TGI (SK-MEL-28 melanoma): 3.29 µM; GI50 (SR leukemia): 1.11 µM; TGI (SR leukemia): 3.15 µM; GI50 (NCI-H226 lung): 10.4 µM; TGI (NCI-H226 lung): 24.2 µM; GI50 (SN12C renal): 5.83 µM; TGI (SN12C renal): 21.2 µM; GI50 (HCT-15 colon): 1.2 µM; TGI (HCT-15 colon): 3.28 µM; GI50 (NCI-H460 lung): 1.22 µM; TGI (NCI-H460 lung): 2.66 µM; GI50 (OVCAR-4 ovarian): 1.81 µM; TGI (OVCAR-4 ovarian): 4.04 µM; GI50 (EKVX NSCLC): 1.67 µM; TGI (EKVX NSCLC): 3.5 µM; GI50 (OVCAR-8 ovarian): 2.1 µM; TGI (OVCAR-8 ovarian): 7.26 µM; GI50 (CCRF-CEM leukemia): 1.09 µM; TGI (CCRF-CEM leukemia): 4.5 µM; GI50 (OVCAR-5 ovarian): 2.22 µM; TGI (OVCAR-5 ovarian): 4.68 µM; GI50 (SF-295 CNS): 5.35 µM; TGI (SF-295 CNS): 18.8 µM; GI50 (LOX IMVI melanoma): 1.21 µM; TGI (LOX IMVI melanoma): 2.59 µM; GI50 (COLO 205 colon): 3.08 µM; TGI (COLO 205 colon): 17.9 µM; GI50 (CAKI-1 renal): 3.73 µM; TGI (CAKI-1 renal): 17 µM; GI50 (U251 CNS): 1.58 µM; TGI (U251 CNS): 3.34 µM; GI50 (UACC-62 melanoma): 1.89 µM; TGI (UACC-62 melanoma): 4.26 µM; GI50 (BT-549 breast): 6.09 µM; TGI (BT-549 breast): 19.9 µM; GI50 (HCT-116 colon): 1.07 µM; TGI (HCT-116 colon): 2.38 µM; GI50 (SNB-75 CNS): 2.39 µM; TGI (SNB-75 CNS): 17.4 µM; GI50 (SK-MEL-2 melanoma): 9.15 µM; TGI (SK-MEL-2 melanoma): 25.1 µM; GI50 (DU-145 prostate): 1.71 µM; TGI (DU-145 prostate): 3.51 µM; GI50 (SNB-19 CNS): 1.51 µM; TGI (SNB-19 CNS): 3.41 µM; GI50 (T-47D breast): 14.2 µM; TGI (T-47D breast): 37.9 µM; GI50 (MCF7 breast): 1.18 µM; TGI (MCF7 breast): 2.79 µM; GI50 (MOLT-4 leukemia): 0.389 µM; TGI (MOLT-4 leukemia): 1.71 µM; GI50 (SK-MEL-5 melanoma): 1.74 µM; TGI (SK-MEL-5 melanoma): 3.14 µM; GI50 (SK-OV-3 ovarian): 13.4 µM; TGI (SK-OV-3 ovarian): 27.2 µM; GI50 (OVCAR-3 ovarian): 2.19 µM; TGI (OVCAR-3 ovarian): 4.88 µM; GI50 (UO-31 renal): 1.9 µM; TGI (UO-31 renal): 11.5 µM; GI50 (PC-3 prostate): 1.82 µM; TGI (PC-3 prostate): 5.09 µM; GI50 (NCI/ADR-RES ovarian): 1.23 µM; TGI (NCI/ADR-RES ovarian): 4.01 µM; GI50 (RPMI-8226 leukemia): 1.95 µM; TGI (RPMI-8226 leukemia): 4.88 µM; GI50 (UACC-257 melanoma): 2.1 µM; TGI (UACC-257 melanoma): 4.68 µM; GI50 (A498 renal): 3.08 µM; TGI (A498 renal): 16.5 µM; GI50 (MDA-MB-231 breast): 1.61 µM; TGI (MDA-MB-231 breast): 3.71 µM; GI50 (K-562 leukemia): 1.24 µM; TGI (K-562 leukemia): 2.81 µM; GI50 (MDA-MB-435): 1.64 µM; TGI (MDA-MB-435): 3.1 µM; GI50 (HL-60(TB) leukemia): 1.72 µM; TGI (HL-60(TB) leukemia): 3.55 µM; GI50 (HOP-92 NSCLC): 2.58 µM; TGI (HOP-92 NSCLC): 17 µM; GI50 (HCC-2998 colon): 1.47 µM; TGI (HCC-2998 colon): 2.91 µM; GI50 (A549 NSCLC): 1.63 µM; TGI (A549 NSCLC): 4.3 µM; GI50 (HT29 colon): 1.75 µM; TGI (HT29 colon): 4.29 µM; GI50 (TK-10 renal): 9.04 µM; TGI (TK-10 renal): 24.7 µM; GI50 (SW-620 colon): 0.675 µM; TGI (SW-620 colon): 2.11 µM; GI50 (KM12 colon): 1.84 µM; TGI (KM12 colon): 3.72 µM; GI50 (SF-268 CNS): 7.34 µM; TGI (SF-268 CNS): 24.5 µM; GI50 (SF-539 CNS): 1.76 µM; TGI (SF-539 CNS): 3.2 µM; GI50 (ACHN renal): 1.13 µM; TGI (ACHN renal): 2.44 µM; GI50 (MALME-3M melanoma): 1.87 µM; TGI (MALME-3M melanoma): 4.01 µM; GI50 (M14 melanoma): 1.64 µM; TGI (M14 melanoma): 3.31 µM; GI50 (HS 578T breast): 1.95 µM; TGI (HS 578T breast): 4.59 µM; GI50 (HOP-62 NSCLC): 6.03 µM; TGI (HOP-62 NSCLC): 23.7 µM
